The source of these data is patent publication US20260150841A1, “PYRIDINE COMPOUNDS FOR COMBATTING DIHYDROOROTATE-DEHYDROGENASE INHIBITOR-RESISTANT PHYTOPATHOGENIC FUNGI” (priority 2022, published 2026).

≈ marks a conversion by molar mass, not a printed value. Where two headings read alike, the source gives them in different places. Some results are limits rather than exact numbers.

Holding throughout (format): cell-based
For test [1], the system named is Botrytis cinerea mutant Y208H. Put plainly: Activity against Botrytis cinerea in the microtiter test, mutant Y208H. The conditions noted are these: for IC50: Botrytis cinerea, MUTANTY208H, 168 h, read-out: Absolute IC50, Y208H, Botrytis cinerea mutant Y208H, turbidity at 620 nm after 7 days. An excerpt: (§1) The active substances were formulated separately as a stock solution in dimethyl sulfoxide (DMSO) at a concentration of 10 000 ppm.
(§2) Spontaneous mutants were selected by plating out B. cinerea spores (in the range of 10^7-10^8) on DOB agar plates (3.4 g/l YNB (Becton Dickinson), 10 g/l Ammoniumsulfat, 40 g/l Glucose, 20 g/l Agar), amended with different lethal concentrations of active ingredient. After 7-14 days growing colonies were transferred to DOB agar plates, amended with the same lethal concentrations of active ingredient and then further propagated on Oatmeal agar medium (50 g/l Oatmeal agar (Sigma), 15 g/l Agar (Difco) for sensitivity testing.
(§3) Fungal strains used: • a) Botrytis cinerea (sensitive, wild-type) • b) Various mutants of Botrytis cinerea
(§4) The spores of Botrytis cinerea were harvested with a cotton swab from an Oatmeal agar plate (50 g/l Oatmealagar (Sigma, Art.O-3506), 15 g/l agar, (Difco) and this is dipped in 3 ml of double concentrated DOB-medium (3.4 g/l YNB (Becton Dickinson), 10 g/l Ammoniumsulfat, 40 g/l Glucose, adjusted to pH 7) and the spore suspension is adjusted to a spore density of 3.2×10^4 spores/ml. The compound solutions were diluted from stock solution in (dimethylsulfoxide) DMSO in several steps with sterile deionized water before use. High test concentrations were 50 mg/L (ppm) or 31 mg/L (ppm). Compound solutions were transferred into empty microplates and filled up with an equal amount of spore suspension.
(§5) The antifungal activity was determined by measuring the turbidity of a culture in 96-well microplates in the presence of test compounds after 7 days incubation at 620 nm. A blank value for each concentration (growth media+compound, without spores) are subtracted from the spore suspension. The relative antifungal activity was calculated by comparing the effect of the test compounds with the effect of a DMSO control The results are shown in Table IV (for compounds of general formula I.A), VI (for compounds of general formula I.B), and VIII (for compounds of general formula I.C).
(§6) A compound showing an IC50 (MUT) above the IC50 (WT) and showing an IC50 (MUT) to IC50 (WT) ratio being in a range above 100 is considered unsuitable (“I”) as DHODH inhibitor.
(§7) The absolute IC50-values (concentration of test compound resulting in 50% inhibition of fungal growth) were calculated from the resulting dose-response for each compound and strain.

Test [2] concerns Botrytis cinerea mutant H108P. Kind of test: Activity against Botrytis cinerea in the microtiter test, mutant H108P. The conditions noted are these: for IC50: Botrytis cinerea, MUTANTH108P, 168 h, read-out: Absolute IC50, H108P, Botrytis cinerea mutant H108P, turbidity at 620 nm after 7 days.
From the text: as §1, §2, §3, §4, §5, §6, §7

Test [3] has as its system Botrytis cinerea mutant G111V. Kind of test: Activity against Botrytis cinerea in the microtiter test, mutant G111V. Conditions: for IC50: Botrytis cinerea, MUTANTG111V, 168 h, read-out: Absolute IC50, G111V, Botrytis cinerea mutant G111V, turbidity at 620 nm after 7 days.
From the text: as §1, §2, §3, §4, §5, §6, §7

The subject of test [4] is Botrytis cinerea (sensitive, wild-type). Kind of test: Activity against Botrytis cinerea in the microtiter test, wild type. Conditions: turbidity at 620 nm after 7 days; for IC50: 168 h, read-out: Absolute IC50, wild type. On the procedure: as §1, §3, §4, §5, §7
The subject of test [5] is Botrytis cinerea mutant V195F. Kind of test: Activity against Botrytis cinerea in the microtiter test, mutant V195F. Conditions: for IC50: Botrytis cinerea, MUTANTV195F, 168 h, read-out: Absolute IC50, V195F, Botrytis cinerea mutant V195F, turbidity at 620 nm after 7 days.
From the text: as §1, §2, §3, §4, §5, §6, §7

Test [6] relates to Botrytis cinerea mutant G111E. Put plainly: Activity against Botrytis cinerea in the microtiter test, mutant G111E. The conditions noted are these: for IC50: Botrytis cinerea, MUTANTG111E, 168 h, read-out: Absolute IC50, G111E, Botrytis cinerea mutant G111E, turbidity at 620 nm after 7 days.
From the text: as §1, §2, §3, §4, §5, §6, §7

As for `Cc1cc(C2=NCC(C)(C)Oc3ccccc32)cnc1C` [compound 47], the half-maximal inhibitory concentration (IC50) in test [1] was found to be 1.9 µg/mL (≈ 6.78 µM); in test [2] it was 0.83 µg/mL (≈ 2.96 µM); in test [3], 0.55 µg/mL (≈ 1.96 µM); in test [4] (Botrytis cinerea), 0.04 µg/mL (≈ 0.143 µM); in test [5], 0.02 µg/mL (≈ 0.0713 µM); in test [6] it was 2.47 µg/mL (≈ 8.81 µM).
As to `Cc1cc(C2=NC(C)(C)C(C)(C)Oc3ccccc32)cnc1C(F)F` [compound 49], the IC50 is 0.97 µg/mL (≈ 2.82 µM) in test [1]; 0.32 µg/mL (≈ 0.929 µM) in test [2]; 0.7 µg/mL (≈ 2.03 µM) in test [3]; 0.01 µg/mL (≈ 0.029 µM) in test [4]; 0.01 µg/mL (≈ 0.029 µM) in test [5]; 2.35 µg/mL (≈ 6.82 µM) in test [6].
Regarding `Cc1cc(C2=NC(C)(C)COc3ccccc32)cnc1C` [compound 51], in test [3] ({}), the “Relative antifungal activity expressed as IC50, G111V” value is recorded as “AA AA AA”. Moreover, the “Relative antifungal activity expressed as IC50, V195F” value in test [5] ({}) was “AA AA AA”.
On to `CC(C)(C)C1(C)N=C(c2cnc3c(F)cccc3c2)c2ccccc2O1` (stereo not drawn) [drawing 117, reference compound], for which the IC50 in test [4] was 0.07 µg/mL (≈ 0.201 µM); in test [5] it was greater than 31 µg/mL.
Turning to `Cc1cc(C2=NC3(CCC3)Oc3ccccc32)cnc1C` [drawing 125, reference compound], in test [1] ({}), the “Absolute IC50, Y208H” value came out at 1.43 ppm. For the same molecule, the “Absolute IC50, H108P” value in test [2] ({}) was found to be 0.25 ppm. In addition, the “Absolute IC50, G111V” value in test [3] ({}) worked out at 0.25 ppm. The “Absolute IC50, wild type” value in test [4] stood at 0.11 ppm. Besides, in test [5] ({}), the “Absolute IC50, V195F” value is recorded as 2.99 ppm. Besides, in test [6] ({}), the “Absolute IC50, G111E” value was found to be 10.94 ppm.
With `CC1(c2ccccc2)N=C(c2cnc3c(F)cccc3c2)c2cccc(F)c2O1` (stereo not drawn) [drawing 127, reference compound], the half-maximal inhibitory concentration (IC50) in test [4] (Botrytis cinerea) came out at 0.04 µg/mL (≈ 0.104 µM); in test [5], 15.5 µg/mL (≈ 40.2 µM).
Taken in the same sequence, the figures for `COc1ccc2c(c1)OC(C)(C)N=C2c1cnc2c(F)cccc2c1` [drawing 129, reference compound] were 0.01 µg/mL (≈ 0.0297 µM) and 5.28 µg/mL (≈ 15.7 µM).
Turning to `CCN1c2c(F)cccc2C(c2cnc3c(F)cccc3c2)=NC1(C)C` [drawing 141, reference compound], the figures for the IC50 in test [4] and in test [5] were 0.02 µg/mL (≈ 0.0569 µM) and greater than 31 µg/mL, respectively.
As for `CC1(C)N=C(c2cnc3c(F)cccc3c2)c2ccccc2OC1(C)C` [drawing 163, reference compound], the 50% inhibitory concentration (IC50) worked out at 0.001 µg/mL (≈ 0.00287 µM) in test [4] (Botrytis cinerea) and 2.84 µg/mL (≈ 8.15 µM) in test [5].
Taken in the same sequence, the figures for `Fc1cccc2cc(C3=NC4(CCCC4)Oc4ccccc43)cnc12` [reference compound] were 0.05 µg/mL (≈ 0.15 µM) and 10.9 µg/mL (≈ 32.8 µM).
As to `Fc1cccc2c1OC1(CCC1)N=C2c1cnc2ccccc2c1` [reference compound], the IC50 was determined as 1.59 µg/mL (≈ 4.99 µM) in test [1]; 0.11 µg/mL (≈ 0.346 µM) in test [2]; 0.14 µg/mL (≈ 0.44 µM) in test [3]; 0.03 µg/mL (≈ 0.0942 µM) in test [4]; 24.1 µg/mL (≈ 75.9 µM) in test [5]; 9.48 µg/mL (≈ 29.8 µM) in test [6].
Turning to `CC1(C)N=C(c2cnc3c(F)cccc3c2)c2cccc(F)c2N1` [reference compound], the IC50 was 0.005 µg/mL (≈ 0.0155 µM) in test [4] (Botrytis cinerea) and 4.42 µg/mL (≈ 13.7 µM) in test [5].
Taken in the same sequence, the figures for `CC1(C)CN=C(c2cnc3ccccc3c2)c2ccccc2O1` [reference compound] were 0.001 µg/mL (≈ 0.00331 µM) and 19.5 µg/mL (≈ 64.6 µM).
